In patent US5290796A, “Substituted 3-piperidinealkanamines and alkanamides and compositions and method of use thereof” (Sterling Winthrop Inc., priority 1992, dated 1994):

Legend:
sigma receptors [1] = target: T1, sigma receptors (Cavia porcellus, UniProt Q60492); assay: sigma receptor binding, [^3 H](+)-pentazocine; design: species or system guinea pig; details: approximately 0.5 nM radioligand, 37° C., 150 min; for inhibition at 10 µM: percent (%) inhibition of binding at 10 μM, guinea pig brain membranes; for Ki: mean of at least two separate determinations performed in triplicate
T1 construct: Brain tissue was prepared from male Hartley guinea pigs; tissue Hazelton Labs; host or cells: brain membranes of male Hartley guinea pigs
T1 sequence (Q60492 whole entry): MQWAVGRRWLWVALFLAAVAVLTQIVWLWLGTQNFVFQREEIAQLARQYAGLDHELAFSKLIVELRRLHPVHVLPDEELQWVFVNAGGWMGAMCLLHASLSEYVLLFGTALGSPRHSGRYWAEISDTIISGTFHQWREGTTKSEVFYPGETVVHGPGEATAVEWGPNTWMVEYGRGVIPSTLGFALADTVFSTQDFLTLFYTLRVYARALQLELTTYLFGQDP
Procedure: (§1) Brain tissue was prepared from male Hartley guinea pigs (Hazelton Labs, Denver, Pa.) which were anesthetized with CO2 and sacrificed by decapitation. All animal care and use procedures were in accord with the "Guide for the Care and Use of Laboratory Animals" (NIH Publ. No. 86-23, 1985). Homogenization was performed in 10 volumes (wt/vol) of 0.32M sucrose with a Brinkmann Polytron at setting 5, 30 sec. The homogenate was centrifuged at 900 x g for 10 min at 4° C., and the supernatant was collected and centrifuged at 22,000 x g for 20 min at 4° C. The pellet was resuspended in 10 volumes of Tris-HCl buffer (50 mM, pH 7.4), incubated at 37° C. for 30 min, and centrifuged at 22,000 x g for 20 min at 4° C. Following this, the pellet was resuspended in Tris buffer and frozen in 5-10 mL aliquots corresponding to a tissue concentration of 100 mg/mL, at -70° C. Binding characteristics of the membranes were stable for at least one month when stored at -70° C.
On the day of the assay, membrane aliquots were thawed, resuspended in fresh Tris-HCl buffer and stored on ice until use. Each assay tube contained 100 μL of [^3 H]-(+)-pentazocine at a final concentration of approximately 0.5 nM or 100 μL of [^3 H]di(2-tolyl)guanidine (DTG) at a final concentration of approximately 4 nM, 100 μL of various concentrations of the compounds of interest, 500 μL of the tissue suspension and 300 μL of buffer to a final assay volume of 1 mL and a final tissue concentration of approximately 8 mg/tube, corresponding to approximately 0.15 mg protein/tube. Non-specific binding was defined by addition of a final concentration of 1 μM haloperidol to blank tubes for [^3 H](+)-pentazocine assay or by addition of a final concentration of 10 μM haloperidol to blank tubes for [^3 H]DTG assay. All tubes were incubated at 37° C. for 150 min in the [^3 H](+)-pentazocine assay or at 25° C. for 90 min in the [^3 H]DTG assay before termination of the reaction by rapid filtration over Whatman GF/B glass fiber filters that were presoaked in a solution of 0.5% polyethyleneimine for at least 1 hr prior to use. Filters were washed with three 4 ml volumes of cold Tris-HCl buffer.
Following addition of scintillation cocktail, samples were allowed to equilibrate for at least 4 hr. The amount of bound radioactivity was determined by liquid scintillation spectrometry using a Beckman LS 5000 TA liquid scintillation counter with an efficiency for tritium of approximately 60%. The results are reported as a percent (%) inhibition of binding at 10 μM.
(§2) Scatchard parameters and inhibition constants (Ki values) for the binding of test compounds were also calculated using the EBDA/LIGAND program (McPherson, J Pharmacol. Meth. 1985, 14, 213-228), purchased from Elsevier/Biosoft, Inc. The Ki values are expressed as the mean of at least two separate determinations performed in triplicate.

sigma receptors [2] = assay: sigma receptor binding, [^3 H]di(2-tolyl)guanidine (DTG); design: species or system guinea pig; details: approximately 4 nM radioligand, 25° C., 90 min
Procedure: as §1, with “Following this, the pellet was resuspended in Tris buffer and frozen in 5-10 mL aliquots corresponding to a tissue concentration of 100 mg/mL, at -70° C. Binding characteristics of the membranes were stable for at least one month when stored at -70° C.” left out
Following addition of scintillation cocktail, samples were allowed to equilibrate for at least 4 hr. The amount of bound radioactivity was determined by liquid scintillation spectrometry using a Beckman LS 5000 TA liquid scintillation counter with an efficiency for tritium of approximately 60%. […]
as §2

Row | SMILES | inhibition at 10 µM (sigma receptors [1]) [%] | further results
1 | C[C@@H]1CCN(C)[C@@H](C)[C@]1(C)CCNC1CCCC1 (relative stereo) [Example 1c, N-cyclopentyl-1,2,3,4-tetramethyl-3-piperidineethanamine] | 57 | 
2 | C[C@@H]1CCN(Cc2ccccc2)[C@@H](C)[C@]1(C)CCN (relative stereo) [Example 2b, 2,3,4-trimethyl-1-(phenylmethyl)-3-piperidineethanamine] | 83 | 
3 | C[C@@H]1CCN(C)[C@@H](C)[C@]1(C)CCN(C)C1CCCC1 (relative stereo) [Example 3, N-cyclopentyl-N-1,2,3,4-pentamethyl-3-piperidineethanamine] | 90 | 
4 | C[C@@H]1CCN(C)[C@@H](C)[C@]1(C)CCN(C)C (relative stereo) [Example 4, N,N-1,2,3,4-hexamethyl-3-piperidineethanamine] |  | [^3 H]DTG Percent Inhibition (sigma receptors [2]; percent (%) inhibition of binding at 10 μM, guinea pig brain membranes): 20%; Ki (sigma receptors [1]): 23.9 µM
5 | C[C@@H]1CCN(C)[C@@H](C)[C@]1(C)CCNC(=O)c1ccsc1 (relative stereo) [Example 5, N-[2-(1,2,3,4-tetramethyl-3-piperidinyl)-ethyl]-3-thiophenecarboxamide] | 79 | 
6 | CCOC(=O)NCC[C@]1(C)[C@H](C)CCN(C)[C@H]1C (relative stereo) [Example 6, ethyl-2-(1,2,3,4-tetramethyl-3-piperidinyl)ethyl carbamate] | 69 | 
7 | C[C@@H]1CCN(C)[C@@H](C)[C@]1(C)CCN(C)C(=O)Cc1ccc(Cl)c(Cl)c1 (relative stereo) [Example 7b, 3,4-dichloro-N-methyl-N-[2-(1,2,3,4-tetramethyl-3-piperidinyl)ethyl]benzeneacetamide] | 94 | 
8 | C[C@@H]1CCN(C)[C@@H](C)[C@]1(C)CCN1CCCC1 (relative stereo) [Example 10, 1,2,3,4-tetramethyl-3-[2-(1-pyrrolidinyl)ethyl]piperidine] |  | Ki (sigma receptors [2]; mean of at least two separate determinations performed in triplicate): 7.51 µM; Ki (sigma receptors [1]): 5.98 µM
